In US20120172408A1, “ACTIVE INGREDIENT COMPRISING INDOCYANINE GREEN AND/OR INFRACYANINE GREEN” (A.R.C. LASER GMBH, priority 2011, published 2012):

Tested on: microscopic organisms
Assay: Antimicrobial effect of ICG under irradiation with light (photodynamic), infections on gingiva and teeth
Conditions: more particularly laser light, wavelength 780 to 830 nm

**Q.** How did the “effect against microscopic organisms, more particularly an antimicrobial effect” value turn out when `CC1(C)C(/C=C/C=C/C=C/C=C2\N(CCCCS(=O)(=O)O)c3ccc4ccccc4c3C2(C)C)=[N+](CCCCS(=O)(=O)[O-])c2ccc3ccccc3c21` [ICG, Indocyanine green] was run?
**A.** The value was “outstanding effect”.
